From patent publication US10590166B2, “Peptides useable for treating cancer” (Allegro Pharmaceuticals, LLC, priority 2009, dated 2020)

Experiments:
[1] = tested on: human umbilical vein endothelial cells (HUVEC); experiment: wound-healing assay with HUVEC on fibronectin coated surface; assay type: cell-based
Experimental: To test the anti-adhesive properties of RGCysteic Acid peptides in vitro, a wound-healing assay was performed with human umbilical vein endothelial cells (HUVEC). HUVEC were seeded and allowed to grow to a confluent monolayer on a fibronectin coated surface. A wound (a scratch rift) was created by dragging a small pipette tip across the HUVEC monolayer. The cells were then incubated in fresh growth medium containing the RGCysteic Acid peptide (Compound 1; 10 mM), and the wound area was imaged in five different fields at various time points (0, 4, 8, 12, 16, 20, 24 hours) to determine the kinetics of wound closure. The level of wound closure was quantified by determining the fraction of the original wound area that was re-occupied by HUVEC through cellular adhesion, migration and proliferation.
In control studies, the following peptides were used in place of RGCysteic Acid (Compound 1): cyclic-RGD peptide (1 mM), positive control) and RGE peptide (1 mM, negative control).
The results are shown as a percentage of the original area. The error bars correspond to the standard deviation in wound size across 2-6 independent trials.

New Zealand Rabbits = experiment: Ocular toxicity of intravitreal Compound 1 with and without urea (Table A); assay type: in vivo; details: single intravitreal injection, 24 hour follow up, 8 eyes per group
rho/VEGF mice = experiment: Subretinal neovascularization in transgenic rho/VEGF mice expressing human VEGF; assay type: in vivo; details: 10 μg, single intraocular injection, seven days post-dose, 3 animals
Experimental: Transgenic mice in which the rhodopsin promoter drives expression of human VEGF in photoreceptors (rho/VEGF mice) were randomized into separate treatment groups and studies were performed to provide the following comparisons:
Pretreatment measurements of the area of subretinal neovascularization were made on each animal using image analysis by a masked observer. Each animal received its designated treatment in a single intraocular injection. Seven days post-dose, measurements of the area of subretinal neovascularization were again made and compared to the pre-dose measurements to determine the change in subretinal neovascularization area. Also, the animals were sacrificed and the retinas were dissected, immunostained with GSA lectin and examined by fluorescence microscopy.

CC(C)[C@H]1C(=O)N[C@@H](CCCN=C(N)N)C(=O)NCC(=O)N[C@@H](CC(=O)O)C(=O)N[C@H](Cc2ccccc2)C(=O)N1C [Cyclic RGD, N-methylated cyclic-RGDf-N(Me)V, reference compound]
inhibition of cell adhesion ([1]; HUVEC wound healing model, in 12 hours): 40%
inhibition of HUVEC wound healing ([1]; after 24 hours, Compound 1 10 mM, control peptides 1 mM): 45%

NC(N)=O [12% Urea solution, Urea, reference compound]
Total PVD (New Zealand Rabbits): 0% Total PVD
Vitreous liquefaction (New Zealand Rabbits): No liquefaction

B1: ranibizumab: recombinant humanized IgG1 kappa isotype monoclonal antibody fragment (antibody, chains of the INN, looked up, V domains shown)
VH: EVQLVESGGGLVQPGGSLRLSCAASGYDFTHYGMNWVRQAPGKGLEWVGWINTYTGEPTYAADFKRRFTFSLDTSKSTAYLQMNSLRAEDTAVYYCAKYPYYYGTSHWYFDVWGQGTLVTVSS
VL: DIQLTQSPSSLSASVGDRVTITCSASQDISNYLNWYQQKPGKAPKVLIYFTSSLHSGVPSRFSGSGSGTDFTLTISSLQPEDFATYYCQQYSTVPWTFGQGTKVEIK
modifications: Fab
notes: recombinant humanized IgG1 kappa isotype monoclonal antibody fragment
greater reduction in subretinal neovascularization area than control animals (Phosphate Buffered Saline) (rho/VEGF mice): 38.96%
